Measured values from paper PMC3491656 (Journal of medicinal chemistry, 2012).
“Also recorded” adds a separate entry of the source. Each block holds one compound with its values, some of them ahead of it.

Columns and labels:
TrkB [1] = molecular target: TrkB (Rattus norvegicus, UniProt Q63604); experiment: TrkB activation in primary cortical cultures; assay type: cell-based; conditions: 500 nM, 15 min; for TrkB activation (agonistic activity): primary cortical cultures from E17 rat embryos, p-TrkB immunoblotting (Figure 2B); for TrkB and Akt activation in primary neurons: rat primary neurons, immunoblotting and p-Akt ELISA (Figure 4B)
Sequence of TrkB (Rattus norvegicus, UniProt Q63604) (Q63604 32-821): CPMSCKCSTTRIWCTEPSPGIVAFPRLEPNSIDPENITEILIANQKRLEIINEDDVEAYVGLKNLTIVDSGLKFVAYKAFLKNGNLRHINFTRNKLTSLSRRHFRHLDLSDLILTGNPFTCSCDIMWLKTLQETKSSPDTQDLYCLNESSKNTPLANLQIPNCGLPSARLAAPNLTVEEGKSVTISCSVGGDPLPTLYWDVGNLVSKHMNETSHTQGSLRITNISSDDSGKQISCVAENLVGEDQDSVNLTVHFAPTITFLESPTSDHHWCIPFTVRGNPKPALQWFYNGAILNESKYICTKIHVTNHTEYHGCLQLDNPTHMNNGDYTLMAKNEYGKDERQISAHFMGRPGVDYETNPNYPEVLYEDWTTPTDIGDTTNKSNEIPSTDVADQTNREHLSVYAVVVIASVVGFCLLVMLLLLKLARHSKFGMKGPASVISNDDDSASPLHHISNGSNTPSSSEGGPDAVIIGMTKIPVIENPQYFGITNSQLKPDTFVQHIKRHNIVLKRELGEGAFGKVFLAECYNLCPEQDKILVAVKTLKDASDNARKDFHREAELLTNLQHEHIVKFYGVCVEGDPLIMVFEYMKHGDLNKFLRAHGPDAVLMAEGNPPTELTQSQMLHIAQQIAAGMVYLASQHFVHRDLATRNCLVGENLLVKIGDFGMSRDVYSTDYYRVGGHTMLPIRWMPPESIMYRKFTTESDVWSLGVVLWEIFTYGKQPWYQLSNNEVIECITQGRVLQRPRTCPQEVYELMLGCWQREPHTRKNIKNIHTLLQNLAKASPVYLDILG

male C57BL/6J mice [2] = experiment: Locomotor activity assay; assay type: in vivo
male C57BL/6J mice [3] = experiment: Forced swim test; assay type: in vivo; conditions: for immobility in forced swim test: 5 mg/kg oral once a day for 21 days
[4] = Human plasma protein binding; assay type: in vitro ADME; conditions: 5 μM
TrkB [5] = molecular target: T1, TrkB (Mus musculus, UniProt P15209); experiment: TrkB activation in mouse brain after chronic oral treatment; assay type: in vivo, C57 BL/6J mice; conditions: for TrkB activation in brain tissues (anti-p-TrkB Y816 and Y706 immunoblotting) / TrkB phosphorylation in hippocampus (immunohistochemistry, anti-p-TrkB 816): 2.5 mg/kg oral; for TrkB activation in brain tissues (anti-p-TrkB Y816 and Y706 immunoblotting) / TrkB phosphorylation in cortex and hippocampus: 3 weeks; for TrkB activation in brain tissues (anti-p-TrkB Y816 and Y706 immunoblotting): after behavioral tests; for TrkB phosphorylation in hippocampus (immunohistochemistry, anti-p-TrkB 816): chronic, brain sections; for TrkB phosphorylation in cortex and hippocampus: 5 mg/kg oral, vs vehicle
T1 sequence (P15209 32-821): as the sequence (Q63604 32-821) above, with M3T, T9S, T10A, I32V, K63R, G84S, T153M, I185L, T394S, N770S counted along it

p-Akt and p-MAPK = experiment: Downstream p-Akt and p-MAPK signaling in mouse brain; assay type: in vivo, C57 BL/6J mice; conditions: hippocampus; for downstream p-Akt activity: 2.5 mg/kg oral, 3 weeks; for downstream p-Akt and p-MAPK signalings: 1 mg/kg oral, 4 h
male C57BL/6J mice [6] = experiment: Tail suspension test; assay type: in vivo; conditions: 2.5 mg/kg oral once a day for 3 weeks
[7] = Reactive metabolite screening; assay type: in vitro ADME; conditions: reactive metabolic screening
TrkB [8] = molecular target: T1, TrkB; experiment: TrkB activation in mouse brain after single oral administration; assay type: in vivo, C57 BL/6J mice; conditions: 1 mg/kg oral; for TrkB activation in mouse brain: hippocampus
P-Akt S473 = P-Akt S473 ELISA in drug-treated mouse brain; assay type: in vivo, C57 BL/6J mice; conditions: 1 mg/kg oral, time course
TrkA receptor = TrkA receptor (Mus musculus, UniProt Q3UFB7); experiment: TrkA activation in mouse brain after chronic oral treatment; assay type: in vivo, mice; conditions: 5 mg/kg oral, anti-p-TrkA 794
Sequence of TrkA receptor (Q3UFB7 34-799): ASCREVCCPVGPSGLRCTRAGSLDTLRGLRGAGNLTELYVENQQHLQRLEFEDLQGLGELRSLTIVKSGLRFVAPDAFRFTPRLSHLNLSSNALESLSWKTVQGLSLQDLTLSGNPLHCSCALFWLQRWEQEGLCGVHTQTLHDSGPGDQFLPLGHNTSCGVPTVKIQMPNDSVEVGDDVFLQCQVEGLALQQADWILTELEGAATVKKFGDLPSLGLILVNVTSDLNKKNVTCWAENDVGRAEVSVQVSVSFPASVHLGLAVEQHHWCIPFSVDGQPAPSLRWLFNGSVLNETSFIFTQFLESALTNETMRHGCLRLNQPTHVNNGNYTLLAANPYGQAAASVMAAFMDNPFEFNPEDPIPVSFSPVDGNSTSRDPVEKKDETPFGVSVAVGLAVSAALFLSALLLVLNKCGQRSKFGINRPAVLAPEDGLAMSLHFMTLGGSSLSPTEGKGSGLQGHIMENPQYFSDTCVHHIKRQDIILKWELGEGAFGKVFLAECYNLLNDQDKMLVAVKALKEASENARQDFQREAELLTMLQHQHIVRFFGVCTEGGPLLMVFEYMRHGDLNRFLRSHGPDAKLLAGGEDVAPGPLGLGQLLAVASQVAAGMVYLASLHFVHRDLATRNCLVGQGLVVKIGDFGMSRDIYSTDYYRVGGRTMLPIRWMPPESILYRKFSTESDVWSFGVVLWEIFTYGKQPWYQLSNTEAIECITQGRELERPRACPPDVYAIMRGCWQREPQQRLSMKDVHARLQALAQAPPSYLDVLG

[9] = In vivo pharmacokinetic studies in mice
hERG = hERG (Homo sapiens, UniProt Q12809); experiment: hERG inhibition assay; assay type: in vitro ADME
Sequence of hERG (Q12809 whole entry): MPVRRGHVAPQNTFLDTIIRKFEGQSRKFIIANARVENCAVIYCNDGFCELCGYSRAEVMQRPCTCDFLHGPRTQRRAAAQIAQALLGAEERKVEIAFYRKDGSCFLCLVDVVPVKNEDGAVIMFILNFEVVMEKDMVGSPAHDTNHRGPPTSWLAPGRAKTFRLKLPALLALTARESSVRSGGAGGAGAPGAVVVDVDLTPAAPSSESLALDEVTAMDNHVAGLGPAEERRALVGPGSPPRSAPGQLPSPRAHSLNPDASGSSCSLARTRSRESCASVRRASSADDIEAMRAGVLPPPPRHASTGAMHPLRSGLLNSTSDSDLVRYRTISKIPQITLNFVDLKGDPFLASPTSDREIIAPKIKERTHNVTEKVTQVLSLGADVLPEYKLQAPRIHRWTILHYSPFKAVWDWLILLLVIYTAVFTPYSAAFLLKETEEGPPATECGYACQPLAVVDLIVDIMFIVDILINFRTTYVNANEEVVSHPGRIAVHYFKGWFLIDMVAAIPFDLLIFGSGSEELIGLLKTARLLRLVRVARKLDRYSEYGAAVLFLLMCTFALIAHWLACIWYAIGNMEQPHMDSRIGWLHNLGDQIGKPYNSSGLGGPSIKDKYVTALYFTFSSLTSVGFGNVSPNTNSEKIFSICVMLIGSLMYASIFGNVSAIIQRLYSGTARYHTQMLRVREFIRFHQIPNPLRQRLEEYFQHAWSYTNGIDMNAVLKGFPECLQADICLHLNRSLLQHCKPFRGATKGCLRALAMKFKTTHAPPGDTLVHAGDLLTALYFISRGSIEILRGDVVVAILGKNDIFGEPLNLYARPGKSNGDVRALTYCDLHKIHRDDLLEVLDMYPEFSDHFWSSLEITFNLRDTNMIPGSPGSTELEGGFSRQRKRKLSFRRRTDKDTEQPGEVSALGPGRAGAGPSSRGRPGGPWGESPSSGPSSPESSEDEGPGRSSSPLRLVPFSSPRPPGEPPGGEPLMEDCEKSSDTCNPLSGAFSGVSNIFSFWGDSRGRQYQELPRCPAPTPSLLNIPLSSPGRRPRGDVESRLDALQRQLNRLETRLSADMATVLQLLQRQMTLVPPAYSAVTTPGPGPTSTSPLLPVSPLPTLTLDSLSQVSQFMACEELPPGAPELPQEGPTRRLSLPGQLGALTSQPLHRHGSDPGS

HepG2 cells = experiment: Comet assay; assay type: cell-based, human; conditions: 100 μM, 24 h
[10] = Preliminary in vivo metabolism study; conditions: Supplemental Figure 2
[11] = 2.5 mg/kg oral once a day for 3 weeks
[12] = 5 mg/kg oral for 21 days, tested at day 22

Structure (SMILES): CN(C)c1ccc(-c2cc(=O)c3c(F)cc(O)c(O)c3o2)cc1 [compound 35]
TrkB activation (agonistic activity) (TrkB [1]): did not significantly affect 7,8-DHF’s TrkB agonistic activity

Binding classification [4]: High Binding | TrkB activation in brain tissues (anti-p-TrkB Y816 and Y706 immunoblotting) (TrkB [5]): markedly activated TrkB | adduct formation (Comment) [7]: formed numerous adducts
Structure (SMILES): O=c1cc(-c2ccc(N3CCCC3)cc2)oc2c1ccc1cc[nH]c12 [compound 23, 2-(4-(Pyrrolidin-1-yl)phenyl)pyrano[3,2-g]indol-4(9H)-one]
locomotor activity (male C57BL/6J mice [2]; [11]): neither compound 13 nor 23 altered the motion activity | TrkB and Akt activation in primary neurons (TrkB [1]): higher activity than compound 11 in triggering TrkB and Akt activation | reduction of immobility in FST compared to vehicle control (male C57BL/6J mice [3]; 2.5 mg/kg oral gavage once a day for 3 weeks): had no effect | TrkB phosphorylation in hippocampus (immunohistochemistry, anti-p-TrkB 816) (TrkB [5]): elevated TrkB phosphorylation in hippocampus | downstream p-Akt activity (p-Akt and p-MAPK): upregulated | immobility in tail suspension test (male C57BL/6J mice [6]): lacked efficacy

time of peak TrkB activation in mouse brain (TrkB [8]; time course): 1 to 2 h | TrkB phosphorylation in cortex and hippocampus (TrkB [5]): clearly escalated TrkB phosphorylation | TrkA activation in mouse brain (TrkA receptor): TrkB but not TrkA is activated
Structure (SMILES): O=c1c(F)c(-c2cccc(O)c2)oc2c(O)c(O)ccc12 [compound 32]
TrkB activation in mouse brain (time course comparison) (TrkB [8]; various time points): less effect on TrkB activation than compound 11 | locomotor activity (male C57BL/6J mice [2]; [12]): but not 32 significantly increased the locomotor activity | time at which p-Akt returned to the baseline (P-Akt S473): 8 h | time of peak p-Akt activation (ELISA) (P-Akt S473; 20 μg brain lysates): 1 h | TrkB activation (agonistic activity) (TrkB [1]): did not significantly affect 7,8-DHF’s TrkB agonistic activity; also recorded: barely affects TrkB stimulatory activity | immobility in forced swim test (male C57BL/6J mice [3]): significantly reduced the immobility

TrkB activation (agonistic activity) (TrkB [1]): diminished agonistic activity
Structure (SMILES): O=c1cc(-c2ccc(F)cc2)[nH]c2c(O)c(O)ccc12 [compound 25]

Structure (SMILES): CN(C)c1cccc(-c2cc(=O)c3ccc(O)c(O)c3o2)c1 [compound 28, 3′-dimethylamino-7,8-DHF]
TrkB activation (agonistic activity) (TrkB [1]): comparable activity as the lead compound 24

Structure (SMILES): O=c1cc(-c2ccc(N3CCOCC3)cc2)oc2c(O)c(O)ccc12 [compound 29, 4′-morpholino-7,8-DHF]
TrkB activation (agonistic activity) (TrkB [1]): comparable activity as the lead compound 24

TrkB activation in mouse brain (TrkB [8]; 2 h): triggers TrkB activation in mouse brain | ACINF ([9]; PO, 10 mg/kg): 1293 ng·min/mL | Binding classification [4]: High Binding | TrkB activation in brain tissues (anti-p-TrkB Y816 and Y706 immunoblotting) (TrkB [5]): markedly activated TrkB
Structure (SMILES): Cc1nc2ccc3c(=O)cc(-c4ccc(N5CCCC5)cc4)oc3c2[nH]1 [compound 13, 2-methyl-8-(4-(pyrrolidin-1-yl)phenyl)chromeno[7,8-d]imidazol-6(1H)-one]
locomotor activity (male C57BL/6J mice [2]; [11]): neither compound 13 nor 23 altered the motion activity | TrkB and Akt activation in primary neurons (TrkB [1]): higher activity than compound 11 in triggering TrkB and Akt activation | TrkB phosphorylation in hippocampus (immunohistochemistry, anti-p-TrkB 816) (TrkB [5]): elevated TrkB phosphorylation in hippocampus | hERG inhibition (hERG): did not possess any concentration-dependent inhibition activity of hERG; also recorded: trifling | downstream p-Akt activity (p-Akt and p-MAPK): upregulated | immobility in tail suspension test (male C57BL/6J mice [6]): significantly reducing the immobility | adduct formation (Comment) [7]: quite stable in vitro; also recorded: No adduct detected

TrkB activation (agonistic activity) (TrkB [1]): diminished agonistic activity
Structure (SMILES): O=c1cc(-c2ccccc2)[nH]c2c(O)c(O)ccc12 [compound 26]

time at which TrkB activation faded away (TrkB [8]; time course): 16 h | time of peak TrkB activation in mouse brain (TrkB [8]; time course): 4 h | DNA lesions (Comet assay) (HepG2 cells): induced DNA lesions | TrkB phosphorylation in cortex and hippocampus (TrkB [5]): clearly escalated TrkB phosphorylation | TrkA activation in mouse brain (TrkA receptor): TrkB but not TrkA is activated
Structure (SMILES): CN(C)c1ccc(-c2cc(=O)c3ccc4nc[nH]c4c3o2)cc1 [compound 11, 8-(4′-(Dimethylamino)phenyl)chromeno[7,8-d]imidazol-6(1H)-one]
TrkB activation in mouse brain (TrkB [8]; 4 h): robustly activated TrkB; also recorded: strongest TrkB stimulatory effect | locomotor activity (male C57BL/6J mice [2]; [12]): substantially augmented locomoter activity; also recorded: significantly increased the locomotor activity | TrkB activation (agonistic activity) (TrkB [1]): stronger effect in triggering TrkB activation than the lead compound | immobility in forced swim test (male C57BL/6J mice [3]): significantly reduced the immobility | downstream p-Akt and p-MAPK signalings (p-Akt and p-MAPK): activated

TrkB activation (agonistic activity) (TrkB [1]): inhibited its activity
Structure (SMILES): O=c1cc(-c2ccc(F)cc2)oc2c(O)c(O)ccc12 [compound 30]

Structure (SMILES): O=c1c(F)c(-c2ccccc2)oc2c(O)c(O)ccc12 [compound 34]
TrkB activation (agonistic activity) (TrkB [1]): did not significantly affect 7,8-DHF’s TrkB agonistic activity

Structure (SMILES): O=c1cc(-c2ccccc2)oc2c(O)c(O)cc(F)c12 [compound 33]
TrkB activation (agonistic activity) (TrkB [1]): did not significantly affect 7,8-DHF’s TrkB agonistic activity

Bioavailability ([9]; PO, 5 mg/kg): not measurable | AUC(0-t) ([9]; mouse, plasma, iv, 1 mg/kg, AUClast): ~0.0988 µg·h/mL | half-life ([9]; mouse, plasma, iv, 1 mg/kg, T1/2, IV): ~9 min
Structure (SMILES): CN(C)c1ccc(-c2cc(=O)c3ccc(O)c(O)c3o2)cc1 [compound 24, 4′-dimethylamino-7,8-dihydroxyflavone]
TrkB activation in mouse brain (TrkB [8]; 4 h): clearly activated the TrkB receptor; also recorded: strongest TrkB stimulatory effect | downstream p-Akt and p-MAPK signalings (p-Akt and p-MAPK): activated

Structure (SMILES): O=c1cc(-c2ccccc2)oc2c(O)c(O)ccc12 [7,8-DHF, 7,8-dihydroxyflavone]
in vivo metabolic pathways [10]: subjected to oxidation, glucuronidation, sulfation and methylation
